Consider 24 compounds from patent publication US20150252022A1, “RETINOIC ACID RECEPTOR-RELATED ORPHAN RECEPTOR MODULATORS AND USES THEREOF” (INNOV17 LLC, priority 2014, published 2015).

Usually IC50 stands for the concentration that gives 50% inhibition. A higher IC50 goes with weaker potency in that assay.

The structures appear in SMILES notation.

Common to all, as to format: cell-based
Common to all, as to conditions: 72 h; human CD4+ T cells under TH17-polarizing conditions, 3 days, supernatant ELISA

The subject of test [1] is IL-17A. In words: Human TH17 Cytokine Inhibition as measured by ELISA (IL-17A). The method, then: (§1) Peripheral blood mononuclear cells (PBMCs) were sourced from freshly prepared leukocyte enriched plasma (buffy coat) from healthy donors (New York Blood Center). PBMCs were isolated by density gradient centrifugation using Ficoll-Paque™ PLUS (GE Healthcare). Human CD4+ T cells were seeded into 96-well plates (5×10^4 cells/well) and activated with plate-bound anti-human (h)-CD3 antibody and soluble h-aCD28 (both at 1 ug/ml; eBioscience) and differentiated into TH17 cells with 20 ng/mL h-IL-6, 5 ng/mL h-TGF-β1, 10 ng/mL h-IL-23 (eBioscience) and 10 ng/mL IL-1β (Miltenyi Biotec) in serum-free TexMACS Medium (Miltenyi Biotec) supplemented with 1% Penicillin/Streptomycin (Lonza) for 3 days. CD4+ T cells propagated under TH17-polarizing conditions were cultured in the presence or absence of various concentrations of compounds with a final concentration of 0.1% DMSO. Supernatants were collected and stored at −20° C. until assayed for IL-17A, IL-17F and IL-21 levels by “Ready-Set-Go” ELISA kits (eBioscience) as per manufacturer's instructions. Endpoint absorbance was read at 450 nm using a microplate reader (Perkin Elmer).
In general terms: In an ELISA, binding on a coated surface is turned into a signal by an enzyme label.

Test [2] deals with IL-17F. Put plainly: Human TH17 Cytokine Inhibition as measured by ELISA (IL-17F). On the procedure: as §1
Test [3] has as its system IL-21. Put plainly: Human TH17 Cytokine Inhibition as measured by ELISA (IL-21). The method, then: as §1

With `O=C(CCc1cccc(F)c1)N1CCC(Cn2ccc3cc(-c4cn[nH]c4)ccc32)CC1` [Example 94, 1-(4-((5-(1H-pyrazol-4-yl)-1H-indol-1-yl)methyl)piperidin-1-yl)-3-(3-fluorophenyl)propan-1-one], the IC50 in test [1], in test [2] and in test [3] was less than 10 µM each time.
Consider `O=C(CCc1ccccc1F)N1CCC(Cn2ccc3cc(-c4cn[nH]c4)ccc32)CC1` [Example 95, 1-(4-((5-(1H-pyrazol-4-yl)-1H-indol-1-yl)methyl)piperidin-1-yl)-3-(2-fluorophenyl)propan-1-one], for which the IC50 in test [1], in test [2] and in test [3] was less than 10 µM each time.
`O=C(CCc1ccccc1)N1CCC(CN2CCCc3cc(-c4cn[nH]c4)ccc32)CC1` [Example 98, 1-(4-((6-(1H-pyrazol-4-yl)-3,4-dihydroquinolin-1(2H)-yl)methyl)piperidin-1-yl)-3-phenylpropan-1-one]: the 50% inhibitory concentration (IC50) in test [1], in test [2] and in test [3] was less than 10 µM in each case.
Turning to `O=C(CC1CCCCC1)N1CCC(CN2CCCc3cc(-c4cn[nH]c4)ccc32)CC1` [Example 99, 1-(4-((6-(1H-pyrazol-4-yl)-3,4-dihydroquinolin-1(2H)-yl)methyl)piperidin-1-yl)-2-cyclohexylethanone], the figures for the IC50 in test [1], in test [2] and in test [3] were less than 10 µM, less than 10 µM and greater than 10 µM, respectively.
For the compound `O=C(Cc1ccccc1)N1CCC(CN2CCCc3cc(-c4cn[nH]c4)ccc32)CC1` [Example 102, 1-(4-((6-(1H-pyrazol-4-yl)-3,4-dihydroquinolin-1(2H)-yl)methyl)piperidin-1-yl)-2-phenylethanone], the IC50 was less than 10 µM in test [1], less than 10 µM in test [2] and greater than 10 µM in test [3].
Consider `O=C(CCCc1ccccc1)N1CCC(CN2CCCc3cc(-c4cn[nH]c4)ccc32)CC1` [Example 103, 1-(4-((6-(1H-pyrazol-4-yl)-3,4-dihydroquinolin-1(2H)-yl)methyl)piperidin-1-yl)-4-phenylbutan-1-one], for which the figures for the IC50 in test [1], in test [2] and in test [3] were less than 10 µM, less than 10 µM and greater than 10 µM, respectively.
Turning to `CC1(C)CC(Cn2ccc3cc(-c4cn[nH]c4)ccc32)CN1C(=O)c1ccccc1` (stereo not drawn) [Example 108, (4-((5-(1H-pyrazol-4-yl)-1H-indol-1-yl)methyl)-2,2-dimethylpyrrolidin-1-yl)(phenyl)methanone], the IC50 in test [1], in test [2] and in test [3] was less than 10 µM in each case.
Turning to `CC1(C)CC(Cn2ccc3cc(-c4cn[nH]c4)ccc32)CN1C(=O)Cc1ccccc1` (stereo not drawn) [Example 109], the IC50 in test [1], in test [2] and in test [3] was less than 10 µM each time.
Take `CC1(C)CC(Cn2ccc3cc(-c4cn[nH]c4)ccc32)CN1C(=O)CCc1ccccc1` (stereo not drawn) [Example 110]: the IC50 in test [1], in test [2] and in test [3] was less than 10 µM each time.
In the case of `CC1(C)CC(Cn2ccc3cc(-c4cn[nH]c4)ccc32)CN1C(=O)CC1CCCCC1` (stereo not drawn) [Example 111], the IC50 in test [1], in test [2] and in test [3] was less than 10 µM each time.
Take `O=C(CCc1ccccc1)N1CCC(Cn2ccc3cc(-c4c[nH]nn4)ccc32)CC1` [Example 112, 1-(4-((5-(1H-1,2,3-triazol-4-yl)-1H-indol-1-yl)methyl)piperidin-1-yl)-3-phenylpropan-1-one]: the IC50 in test [1], in test [2] and in test [3] was less than 10 µM throughout.
For `Cn1cc(-c2ccc3c(ccn3CC3CCN(C(=O)CCc4ccccc4)CC3)c2)nn1` [Example 113, 1-(4-((5-(1-methyl-1H-1,2,3-triazol-4-yl)-1H-indol-1-yl)methyl)piperidin-1-yl)-3-phenylpropan-1-one], the IC50 in test [1], in test [2] and in test [3] was less than 10 µM each time.
`Cc1[nH]ncc1-c1ccc2c(ccn2CC2CCN(C(=O)CCc3ccccc3)CC2)c1` [Example 115, 1-(4-((5-(5-methyl-1H-pyrazol-4-yl)-1H-indol-1-yl)methyl)piperidin-1-yl)-3-phenylpropan-1-one]: the IC50 in test [1], in test [2] and in test [3] was less than 10 µM in each case.
With `O=C(CCc1ccccc1)N1CCC(Cn2ccc3cc(-c4cn[nH]c4C(F)(F)F)ccc32)CC1` [Example 117, 3-phenyl-1-(4-((5-(5-(trifluoromethyl)-1H-pyrazol-4-yl)-1H-indol-1-yl)methyl)piperidin-1-yl)propan-1-one], the IC50 in test [1], in test [2] and in test [3] was less than 10 µM each time.
Consider `O=C(CCc1ccccc1)N1CCC(Cn2ccc3cc(-c4cnn(CCO)c4)ccc32)CC1` [Example 118, 1-(4-((5-(1-(2-hydroxyethyl)-1H-pyrazol-4-yl)-1H-indol-1-yl)methyl)piperidin-1-yl)-3-phenylpropan-1-one], for which the IC50 in test [1], in test [2] and in test [3] was less than 10 µM throughout.
As for `NC(=O)Cn1cc(-c2ccc3c(ccn3CC3CCN(C(=O)CCc4ccccc4)CC3)c2)cn1` [Example 119, 2-(4-(1-((1-(3-phenylpropanoyl)piperidin-4-yl)methyl)-1H-indol-5-yl)-1H-pyrazol-1-yl)acetamide], the figures for the IC50 in test [1], in test [2] and in test [3] were greater than 10 µM, greater than 10 µM and less than 10 µM, respectively.
As for `Cc1ncc(-c2ccc3c(ccn3CC3CCN(C(=O)CCc4ccccc4)CC3)c2)s1` [Example 120, 1-(4-((5-(2-methylthiazol-5-yl)-1H-indol-1-yl)methyl)piperidin-1-yl)-3-phenylpropan-1-one], the IC50 in test [1], in test [2] and in test [3] was less than 10 µM in each case.
For the compound `O=C(CCc1ccccc1)N1CCC(Cn2ccc3cc(-c4cnccn4)ccc32)CC1` [Example 121], the IC50 in test [1], in test [2] and in test [3] was less than 10 µM each time.
Consider `Cc1ccc(-c2ccc3c(ccn3CC3CCN(C(=O)CCc4ccccc4)CC3)c2)nc1` [Example 122], for which the IC50 in test [1], in test [2] and in test [3] was less than 10 µM each time.
As to `Cc1ccncc1-c1ccc2c(ccn2CC2CCN(C(=O)CCc3ccccc3)CC2)c1` [Example 123], the IC50 in test [1], in test [2] and in test [3] was less than 10 µM throughout.
With `O=C(CCc1ccccc1)N1CCC(Cn2ccc3cc(-c4cncs4)ccc32)CC1` [Example 124], the IC50 in test [1], in test [2] and in test [3] was less than 10 µM in each case.
As for `Cn1cc(-c2ccc3c(ccn3CC3CCN(C(=O)CCc4ccccc4)CC3)c2)cn1` [Example 125], the IC50 in test [1], in test [2] and in test [3] was less than 10 µM each time.
In the case of `Cc1cc2cc(-c3cn[nH]c3)ccc2n1CC1CCN(C(=O)CCc2ccccc2)CC1` [Example 132, 1-(4-((2-methyl-5-(1H-pyrazol-4-yl)-1H-indol-1-yl)methyl)piperidin-1-yl)-3-phenylpropan-1-one], the IC50 in test [1], in test [2] and in test [3] was less than 10 µM in each case.
For the compound `Cc1cc2cc(-c3cn[nH]c3)ccc2n1CC1CCN(C(=O)Cc2ccccc2)CC1` [Example 133, 1-(4-((2-methyl-5-(1H-pyrazol-4-yl)-1H-indol-1-yl)methyl)piperidin-1-yl)-2-phenylethanone], the IC50 in test [1], in test [2] and in test [3] was less than 10 µM throughout.
